Assay results published in US8642602B2, “Method of inhibiting fibrogenesis and treating fibrotic disease” (University of Georgia Research Foundation, Inc., priority 2009, dated 2014).

How the values were obtained:
[1] = test system: α1 (I) collagen and TIMP-1 transcripts; test: Acute CCl4 liver injury, liver transcripts by qPCR; type: in vivo, C57Bl6 mice; conditions: mice, 15 mg/m^2 IP 2 hours prior to single dose of CCl4, sacrificed 24 h after
Procedure: FIG. 5—A.) and B.) 5×10^6 rat MFBs were electroporated as outlined “Materials and methods”. 2 μgs control siRNA or siRNA designed to target rat EZH2 was used per transfection. Total RNA was prepared from control or rat EZH2 siRNA transfected cells 48 h after the electroporation. First strand cDNA was synthesised which was then utilised as a template in qPCR using primers for specific amplification of EZH2 (in A.) and PPARγ (in B.). C.) Fully differentiated MFBs were treated with 1 μM 3-deazaneplanocin A or vehicle for 72 h at which time total RNA was prepared from control or drug treated cells. First strand cDNA was synthesised which was then utilised as a template in qPCR using primers for specific amplification of PPARγ. D.) Freshly isolated rat HSC were plated out onto plastic in two separate dishes and one dish treated with 1 μM 3-deazaneplanocin A at 12 h following the HSC isolation. […] Results are expressed as percent control of 3-deazaneplanocin A and olive oil vehicle injected mice (data not included in the graph).
3 deazaneplanocin A was given to two groups of four C57Bl6 mice (15 mg/m^2 which was calculated to be 0.428 μg of drug per g body weight of a mouse) was given IP 2 hours prior to a single dose of CCl4 (CCl4/olive oil in a 1:1 [vol/vol] ratio at 1 μl per g body weight). […]

[2] = test system: EZH2; conditions: Tan J et al, 2007; cited from earlier work
[3] = test system: hepatic stellate cells; test: Induction of fibrogenic genes in cultured hepatic stellate cells; type: cell-based, rat; conditions: freshly isolated quiescent hepatic stellate cells in culture
Source text: EZH2 is therefore a negative regulator of PPARγ transcription in myofibroblasts, but also appears to play a wider regulatory role in promoting MTD and wound-healing. Furthermore, the stimulation of EZH2 expression and subsequent methylation of H3K27 in the downstream exons of the PPARγ gene is identified as a second mechanism through which MeCP2 achieves transcriptional silencing of PPARγ. The combined effect of H3K9 methylation and HP1α binding at the 5′ end of the PPARγ gene with H3K27 methylation and PRC1 recruitment in the downstream exons would be to prevent both transcriptional initiation and elongation which reflects the biological importance of suppressing PPARγ expression for MTD and wound-healing. […]
Total RNA was purified from isolated cells using the Total RNA purification kit (Qiagen, UK) following the manufacturer's instructions and was used to generate first strand cDNA utilising a random hexamer primer [p(dN)6] and MMLV reverse transcriptase. […] After each run, a dissociation curve was performed to ensure that no primer dimers contaminated the quantification and that the product had the expected melting temperature. All PCR reactions were normalized to the internal control and relative level of transcriptional difference calculated using the following equation: [1/(2A)]×100.

[4] = test system: collagen I; test: Further testing: fibrogenic activity measured by production of collagen I; type: cell-based; conditions: 1 μM, one dose at start of culturing, 7 days (FIG. 11)
Source text: RNA was also isolated on days 4 and 7.

| SMILES | induction of transcripts for TIMP-1 in injured liver [1] | induction of transcripts for α1 (I) collagen in injured liver [1] | effect on cellular EZH2 [2] | induction of fibrogenic gene al (I) collagen [3] | induction of fibrogenic gene tissue inhibitor of metalloproteinase-1 (TIMP-1) [3] | inhibition of collagen I production at 7 days [4] |
| --- | --- | --- | --- | --- | --- | --- |
| Nc1nccc2c1ncn2[C@@H]1C=C(CO)[C@@H](O)[C@H]1O [Compound 3, 3-deazaneplanocin A] | suppressed the induction | suppressed the induction | depletes cells of EZH2 | suppressed the induction | suppressed the induction | – |
| Nc1nc(Cl)cc2c1ncn2C1COC(CO)O1 (stereo not drawn) [Compound 8] | – | – | – | – | – | significant inhibition |
